Test results taken from ChEMBL document CHEMBL1147899, “Raman, FT-IR, NMR spectroscopic data and antimicrobial activity of bis[micro2-(benzimidazol-2-yl)-2-ethanethiolato-N,S,S-chloro-palladium(II)] dimer, [(micro2-CH2CH2NHNCC6H4)PdCl]2.C2H5OH complex” (2007).

Legend:
[1] = tested on: Mycolicibacterium smegmatis; test: Antibacterial activity against Mycobacterium smegmatis CCM 2067 at 5 ug after 24 hrs by disk diffusion method; assay type: functional; settings: CCM 2067, 24 h, read-out: IZ
[2] = tested on: Listeria monocytogenes; test: Antibacterial activity against Listeria monocytogenes ATCC 15313 at 5 ug after 24 hrs by disk diffusion method; assay type: functional; settings: ATCC 15313, 24 h, read-out: IZ
[3] = tested on: Pseudomonas aeruginosa; test: Antibacterial activity against Pseudomonas aeruginosa ATCC 27853 at 5 ug after 24 hrs by disk diffusion method; assay type: functional; settings: ATCC 27853, 24 h, read-out: IZ
[4] = tested on: Escherichia coli; test: Antibacterial activity against Escherichia coli ATCC 11230 at 5 ug after 24 hrs by disk diffusion method; assay type: functional; settings: ATCC 11230, 24 h, read-out: IZ
[5] = tested on: Micrococcus luteus; test: Antibacterial activity against Micrococcus luteus La 2971 at 5 ug by disk diffusion method; assay type: functional; settings: read-out: IZ
[6] = tested on: Staphylococcus aureus; test: Antibacterial activity against Staphylococcus aureus ATCC 6538 at 5 ug after 24 hrs by disk diffusion method; assay type: functional; settings: ATCC 6538, 24 h, read-out: IZ
[7] = tested on: Bacillus cereus; test: Antibacterial activity against Bacillus cereus ATCC 7064 at 5 ug after 24 hrs by disk diffusion method; assay type: functional; settings: ATCC 7064, 24 h, read-out: IZ
[8] = tested on: Klebsiella pneumoniae; test: Antibacterial activity against Klebsiella pneumoniae UC57 at 5 ug after 24 hrs by disk diffusion method; assay type: functional; settings: read-out: IZ
[9] = tested on: Proteus vulgaris; test: Antibacterial activity against Proteus vulgaris ATCC 8427 at 5 ug after 24 hrs by disk diffusion method; assay type: functional; settings: ATCC 8427, 24 h, read-out: IZ
[10] = tested on: Micrococcus luteus; test: Antibacterial activity against Micrococcus luteus La 2971 at 10 ug by disk diffusion method; assay type: functional; settings: read-out: IZ
[11] = tested on: Escherichia coli; test: Antibacterial activity against Escherichia coli ATCC 11230 at 10 ug after 24 hrs by disk diffusion method; assay type: functional; settings: ATCC 11230, 24 h, read-out: IZ
[12] = tested on: Mycolicibacterium smegmatis; test: Antibacterial activity against Mycobacterium smegmatis CCM 2067 at 10 ug after 24 hrs by disk diffusion method; assay type: functional; settings: CCM 2067, 24 h, read-out: IZ
[13] = tested on: Klebsiella pneumoniae; test: Antibacterial activity against Klebsiella pneumoniae UC57 at 10 ug after 24 hrs by disk diffusion method; assay type: functional; settings: read-out: IZ
[14] = tested on: Proteus vulgaris; test: Antibacterial activity against Proteus vulgaris ATCC 8427 at 10 ug after 24 hrs by disk diffusion method; assay type: functional; settings: ATCC 8427, 24 h, read-out: IZ
[15] = tested on: Bacillus cereus; test: Antibacterial activity against Bacillus cereus ATCC 7064 at 10 ug after 24 hrs by disk diffusion method; assay type: functional; settings: ATCC 7064, 24 h, read-out: IZ
[16] = tested on: Staphylococcus aureus; test: Antibacterial activity against Staphylococcus aureus ATCC 6538 at 10 ug after 24 hrs by disk diffusion method; assay type: functional; settings: ATCC 6538, 24 h, read-out: IZ
[17] = tested on: Listeria monocytogenes; test: Antibacterial activity against Listeria monocytogenes ATCC 15313 at 10 ug after 24 hrs by disk diffusion method; assay type: functional; settings: ATCC 15313, 24 h, read-out: IZ
[18] = tested on: Pseudomonas aeruginosa; test: Antibacterial activity against Pseudomonas aeruginosa ATCC 27853 at 10 ug after 24 hrs by disk diffusion method; assay type: functional; settings: ATCC 27853, 24 h, read-out: IZ
[19] = tested on: Escherichia coli; test: Antibacterial activity against Escherichia coli ATCC 11230 at 30 ug after 24 hrs by disk diffusion method; assay type: functional; settings: ATCC 11230, 24 h, read-out: IZ
[20] = tested on: Mycolicibacterium smegmatis; test: Antibacterial activity against Mycobacterium smegmatis CCM 2067 at 30 ug after 24 hrs by disk diffusion method; assay type: functional; settings: CCM 2067, 24 h, read-out: IZ
[21] = tested on: Pseudomonas aeruginosa; test: Antibacterial activity against Pseudomonas aeruginosa ATCC 27853 at 30 ug after 24 hrs by disk diffusion method; assay type: functional; settings: ATCC 27853, 24 h, read-out: IZ
[22] = tested on: Proteus vulgaris; test: Antibacterial activity against Proteus vulgaris ATCC 8427 at 30 ug after 24 hrs by disk diffusion method; assay type: functional; settings: ATCC 8427, 24 h, read-out: IZ
[23] = tested on: Micrococcus luteus; test: Antibacterial activity against Micrococcus luteus La 2971 at 30 ug by disk diffusion method; assay type: functional; settings: read-out: IZ
[24] = tested on: Klebsiella pneumoniae; test: Antibacterial activity against Klebsiella pneumoniae UC57 at 30 ug after 24 hrs by disk diffusion method; assay type: functional; settings: read-out: IZ
[25] = tested on: Listeria monocytogenes; test: Antibacterial activity against Listeria monocytogenes ATCC 15313 at 30 ug after 24 hrs by disk diffusion method; assay type: functional; settings: ATCC 15313, 24 h, read-out: IZ
[26] = tested on: Bacillus cereus; test: Antibacterial activity against Bacillus cereus ATCC 7064 at 30 ug after 24 hrs by disk diffusion method; assay type: functional; settings: ATCC 7064, 24 h, read-out: IZ
[27] = tested on: Staphylococcus aureus; test: Antibacterial activity against Staphylococcus aureus ATCC 6538 at 30 ug after 24 hrs by disk diffusion method; assay type: functional; settings: ATCC 6538, 24 h, read-out: IZ
[28] = tested on: Pseudomonas aeruginosa; test: Antibacterial activity against Pseudomonas aeruginosa ATCC 27853 after 24 hrs by dilution method; assay type: functional
[29] = tested on: Listeria monocytogenes; test: Antibacterial activity against Listeria monocytogenes ATCC 15313 after 24 hrs by dilution method; assay type: functional
[30] = tested on: Bacillus cereus; test: Antibacterial activity against Bacillus cereus ATCC 7064 after 24 hrs by dilution method; assay type: functional
[31] = tested on: Proteus vulgaris; test: Antibacterial activity against Proteus vulgaris ATCC 8427 by after 24 hrs dilution method; assay type: functional
[32] = tested on: Micrococcus luteus; test: Antibacterial activity against Micrococcus luteus La 2971 after 24 hrs by dilution method; assay type: functional
[33] = tested on: Escherichia coli; test: Antibacterial activity against Escherichia coli ATCC 11230 after 24 hrs by dilution method; assay type: functional
[34] = tested on: Staphylococcus aureus; test: Antibacterial activity against Staphylococcus aureus ATCC 6538 after 24 hrs by dilution method; assay type: functional
[35] = tested on: Mycolicibacterium smegmatis; test: Antibacterial activity against Mycobacterium smegmatis CCM 2067 after 24 hrs by dilution method; assay type: functional
[36] = tested on: Klebsiella pneumoniae; test: Antibacterial activity against Klebsiella pneumoniae UC57 after 24 hrs by dilution method; assay type: functional
[37] = tested on: Debaryomyces hansenii; test: Antifungal activity against Debaryomyces hansenii DSM 70238 after 48 hrs by dilution method; assay type: functional
[38] = tested on: Kluyveromyces marxianus; test: Antifungal activity against Kluyveromyces fragilis NRRL 2415 after 48 hrs by dilution method; assay type: functional
[39] = tested on: Rhodotorula mucilaginosa; test: Antifungal activity against Rhodotorula rubra DSM 70403 after 48 hrs by dilution method; assay type: functional
[40] = tested on: Kluyveromyces marxianus; test: Antifungal activity against Kluyveromyces fragilis NRRL 2415 at 100 ug after 72 hrs by disk diffusion method; assay type: functional, organism-based
[41] = tested on: Debaryomyces hansenii; test: Antifungal activity against Debaryomyces hansenii DSM 70238 at 100 ug after 72 hrs by disk diffusion method; assay type: functional, organism-based
[42] = tested on: Hanseniaspora guilliermondii; test: Antifungal activity against Hanseniaspora guilliermondii DSM 3432 at 100 ug after 72 hrs by disk diffusion method; assay type: functional, organism-based
[43] = tested on: Rhodotorula mucilaginosa; test: Antifungal activity against Rhodotorula rubra DSM 70403 at 100 ug after 72 hrs by disk diffusion method; assay type: functional, organism-based
[44] = tested on: Candida albicans; test: Antifungal activity against Candida albicans ATCC 10231 after 48 hrs by dilution method; assay type: functional
[45] = tested on: Hanseniaspora guilliermondii; test: Antifungal activity against Hanseniaspora guilliermondii DSM 3432 after 48 hrs by dilution method; assay type: functional

In the case of `CC1COc2c(N3CCN(C)CC3)c(F)cc3c(=O)c(C(=O)O)cn1c23` (centres undefined) [OFLOXACIN], the zone of inhibition at 5 µg/disc [1] is reported as 32 mm, the zone of inhibition at 5 µg/disc [2] is reported as 30 mm and the zone of inhibition at 5 µg/disc [3] is reported as 44 mm. It also gave a zone of inhibition at 5 µg/disc [4] of 30 mm, a zone of inhibition at 5 µg/disc [5] of 28 mm and a zone of inhibition at 5 µg/disc [6] of 24 mm. The zone of inhibition at 5 µg/disc [7] was 30 mm, the zone of inhibition at 5 µg/disc [8] was 28 mm and the zone of inhibition at 5 µg/disc [9] was 28 mm.

For `CC1(C)S[C@@H]2[C@H](NC(=O)Cc3ccccc3)C(=O)N2[C@H]1C(=O)O` [PENICILLIN G], the zone of inhibition at 10 µg/disc [10] was 36 mm, the zone of inhibition at 10 µg/disc [11] was 18 mm and the zone of inhibition at 10 µg/disc [12] was 15 mm. The zone of inhibition at 10 µg/disc [13] was 18 mm, the zone of inhibition at 10 µg/disc [14] was 10 mm and the zone of inhibition at 10 µg/disc [15] was 14 mm. The zone of inhibition at 10 µg/disc [16] was 13 mm, the zone of inhibition at 10 µg/disc [17] was 10 mm and the zone of inhibition at 10 µg/disc [18] was 8 mm.

`CN(C)[C@@H]1C(O)=C(C(N)=O)C(=O)[C@@]2(O)C(O)=C3C(=O)c4c(O)cccc4[C@@](C)(O)[C@H]3C[C@@H]12` [TETRACYCLINE] gave a zone of inhibition at 30 µg/disc [19] of 28 mm, a zone of inhibition at 30 µg/disc [20] of 24 mm and a zone of inhibition at 30 µg/disc [21] of 34 mm. For the same molecule, the zone of inhibition at 30 µg/disc [22] was 26 mm, the zone of inhibition at 30 µg/disc [23] was 2 mm and the zone of inhibition at 30 µg/disc [24] was 30 mm. It also gave a zone of inhibition at 30 µg/disc [25] of 28 mm, a zone of inhibition at 30 µg/disc [26] of 25 mm and a zone of inhibition at 30 µg/disc [27] of 26 mm.

Work on `CN[C@H](CC(C)C)C(=O)N[C@H]1C(=O)N[C@@H](CC(N)=O)C(=O)N[C@H]2C(=O)N[C@H]3C(=O)N[C@H](C(=O)N[C@H](C(=O)O)c4cc(O)cc(O)c4-c4cc3ccc4O)[C@H](O)c3ccc(c(Cl)c3)Oc3cc2cc(c3O[C@@H]2O[C@H](CO)[C@@H](O)[C@H](O)[C@H]2O[C@H]2C[C@](C)(N)[C@H](O)[C@H](C)O2)Oc2ccc(cc2Cl)[C@H]1O` [VANCOMYCIN] yielded a zone of inhibition at 30 µg/disc [19] of 22 mm, a zone of inhibition at 30 µg/disc [20] of 20 mm and a zone of inhibition at 30 µg/disc [21] of 10 mm. It also gave a zone of inhibition at 30 µg/disc [22] of 20 mm, a zone of inhibition at 30 µg/disc [23] of 34 mm and a zone of inhibition at 30 µg/disc [24] of 22 mm. For the same molecule, the zone of inhibition at 30 µg/disc [25] was 26 mm, the zone of inhibition at 30 µg/disc [26] was 18 mm and the zone of inhibition at 30 µg/disc [27] was 13 mm.

With GENTAMICIN the MIC [28] was 6.25 µg/mL, the MIC [29] was 12.5 µg/mL and the MIC [30] was 6.25 µg/mL. For the same molecule, the MIC [31] was 6.25 µg/mL, the MIC [32] was 25 µg/mL and the MIC [33] was 6.25 µg/mL. It also gave an MIC [34] of 25 µg/mL, an MIC [35] of 12.5 µg/mL and an MIC [36] of 6.25 µg/mL.

NYSTATIN gave an MIC [37] of 12.5 µg/mL, an MIC [38] of 6.25 µg/mL and an MIC [39] of 6.25 µg/mL. For the same molecule, the inhibition zone (IZ) [40] was 18 mm, the inhibition zone (IZ) [41] was 16 mm and the inhibition zone (IZ) [42] was 21 mm. The inhibition zone (IZ) [43] was 18 mm, the MIC [44] was 3.12 µg/mL and the MIC [45] was 3.12 µg/mL.
